The source of these data is patent publication EP0596929B1, “AMIDE DERIVATIVES OF ANTIBIOTIC A 40926” (GRUPPO LEPETIT S.p.A., priority 1991, dated 1993).

The test system of the experiment is highly glycopeptide-resistant enterococci. The note with it: summary of Table III.

As to `CN[C@H](CC(C)C)C(=O)N[C@H]1C(=O)N[C@@H](CC(N)=O)C(=O)N[C@H]2C(=O)N[C@H]3C(=O)N[C@H](C(=O)N[C@H](C(=O)O)c4cc(O)cc(O)c4-c4cc3ccc4O)[C@H](O)c3ccc(c(Cl)c3)Oc3cc2cc(c3O[C@@H]2O[C@H](CO)[C@@H](O)[C@H](O)[C@H]2O[C@H]2C[C@](C)(N)[C@H](O)[C@H](C)O2)Oc2ccc(cc2Cl)[C@H]1O` [vancomycin], the “in vitro activity against highly glycopeptide-resistant enterococci (in words)” value was “highly resistant”.

Turning to Teicoplanin, the “in vitro activity against highly glycopeptide-resistant enterococci (in words)” value is “highly resistant”.
